According to paper PMC8804135 (Neurotherapeutics, 2021):
Numbered stars: 1 amine (or outer) side, 2 acyl side, 3 side chain; on linkers, the order of the positions; unused ones are H or OH. Bridge positions count the residues as written; N and C are the ends. Square brackets hold non-standard residues; d marks the D form. Peptide text beside a SMILES is read from it. dAbu(3S-yl) = C[C@@H]([C@@H](N[*:1])C(=O)[*:2])[*:3]; pGlu = O=C1CC[C@@H](C(=O)O)N1

Tests used:
GAL1R [1] = target: T1, GAL1R (Homo sapiens, UniProt P47211); assay: Label-free dynamic mass redistribution assay, SY5Y-R1 cells; format: cell-based; parameters: expressed in transfected cells; conditions: GAL1R-expressing SH-SY5Y cells; 1.6 nM to 5 µM
T1 sequence (P47211 1-349): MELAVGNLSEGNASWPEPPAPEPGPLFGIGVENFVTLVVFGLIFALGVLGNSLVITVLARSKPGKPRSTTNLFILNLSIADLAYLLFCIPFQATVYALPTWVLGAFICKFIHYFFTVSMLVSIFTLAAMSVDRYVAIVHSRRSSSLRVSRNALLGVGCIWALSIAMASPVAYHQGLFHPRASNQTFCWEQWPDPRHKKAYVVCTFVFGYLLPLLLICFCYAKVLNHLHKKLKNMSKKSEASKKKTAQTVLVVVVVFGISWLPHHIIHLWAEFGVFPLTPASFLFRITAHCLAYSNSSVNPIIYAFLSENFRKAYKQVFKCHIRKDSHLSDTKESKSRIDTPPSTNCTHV
Description: SH-SY5Y cells stably expressing low levels of either human GAL1R (SY5Y-R1) or GAL2R (SY5Y-R2) and HEK293 cells expressing human GAL3R (HEK-R3) were seeded in EnSpire LFC-[…] well plates (Perkin Elmer) at a concentration of 12,000 cells per well and cultured overnight at 37 °C and 5% CO2. The medium was aspired, and the cells were washed four times with Hank’s balanced salt solution (HBSS) (+ calcium, + magnesium) supplemented with HEPES (20 mM), and the final volume was adjusted to 30 µl per well. The plate was allowed to equilibrate to assay temperature for 1 h in the EnSpire multimode reader (Perkin Elmer). Galanin-(1–30) (GL Biochem) was dissolved and diluted in water. […] A baseline read was first generated by taking 4 measurements before ligands were added. The plate was measured between 30 and 70 repeats, and each treatment was performed in triplicate. […] EC50 values were calculated using Prism 8.2.0 (GraphPad Software Inc.). The values are provided as means of all independent experiments.

GAL3R = target: T2, GAL3R (Homo sapiens, UniProt O60755); assay: SRE luciferase reporter assay, GAL3R-transfected HEK293 Gqi cells; conditions: transiently transfected HEK293 Gqi cells; up to 10 µM, 5 h
T2 sequence (O60755 1-368): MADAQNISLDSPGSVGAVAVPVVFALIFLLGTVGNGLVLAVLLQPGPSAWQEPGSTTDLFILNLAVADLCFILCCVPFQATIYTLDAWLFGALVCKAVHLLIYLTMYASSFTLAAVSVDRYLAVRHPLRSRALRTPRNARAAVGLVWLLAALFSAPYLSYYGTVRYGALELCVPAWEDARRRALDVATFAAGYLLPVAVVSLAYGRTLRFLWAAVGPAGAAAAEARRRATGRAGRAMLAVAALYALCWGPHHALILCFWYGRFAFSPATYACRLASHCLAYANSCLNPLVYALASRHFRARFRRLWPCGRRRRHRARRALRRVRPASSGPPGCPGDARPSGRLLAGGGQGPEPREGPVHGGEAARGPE

GAL1R [2] = target: T1, GAL1R; assay: cAMP Hunter eXpress GAL1R CHO-K1 GPCR assay (inhibition of forskolin-induced cAMP); format: cell-based; parameters: expressed in transfected cells; conditions: Table 3; CHO-K1 cells expressing GAL1R; 20 µM forskolin; 10 µM to 5 nM; (average) ratio, (n) in cell = number of assays; NA = ratio above 1000
Description: To evaluate the ability of lanthipeptides to […] via GAL1R signaling, we used the cAMP Hunter™ eXpress GAL1R CHO-K1 GPCR Assay from Eurofins-DiscoverX. The assay was performed according to the manufacturer’s instructions. Briefly, for one assay, CHO-K1 cells expressing GAL1R were diluted in AssayComplete™ Cell Plating 2 Reagent, and 100 µl was seeded into each well of a 96-well plate. The plate was incubated at 37 °C, 5% CO2 in a humidified incubator. After 24 h of incubation, the media was aspirated, and 45 µl cell assay buffer/antibody mixture was added to all wells. […] Fifteen µl of the serial dilutions was applied in duplicates to the cells. The concentration of forskolin in the assay was 20 µM. The agonists were incubated for 30 min at 37 °C. Next, 15 µL Antibody Solution and 60 μL cAMP Working Detection Solution were added, and the plate was incubated for 1 h in the dark at room temperature. Finally, 60 μL cAMP Solution A was added and, after 3 h of incubation in the dark at room temperature, the chemiluminescent signal was read with a Synergy HT Biotek reader.

GAL2R = target: T3, GAL2R (Homo sapiens, UniProt O43603); assay: PathHunter eXpress β-arrestin recruitment assay, GAL2R; format: cell-based; parameters: expressed in transfected cells; conditions: Table 3; CHO-K1 cells co-expressing GAL2R and β-arrestin 2; 10 µM to 5 nM; (average) ratio, (n) in cell = number of assays; NA = ratio above 1000
T3 sequence (O43603 1-387): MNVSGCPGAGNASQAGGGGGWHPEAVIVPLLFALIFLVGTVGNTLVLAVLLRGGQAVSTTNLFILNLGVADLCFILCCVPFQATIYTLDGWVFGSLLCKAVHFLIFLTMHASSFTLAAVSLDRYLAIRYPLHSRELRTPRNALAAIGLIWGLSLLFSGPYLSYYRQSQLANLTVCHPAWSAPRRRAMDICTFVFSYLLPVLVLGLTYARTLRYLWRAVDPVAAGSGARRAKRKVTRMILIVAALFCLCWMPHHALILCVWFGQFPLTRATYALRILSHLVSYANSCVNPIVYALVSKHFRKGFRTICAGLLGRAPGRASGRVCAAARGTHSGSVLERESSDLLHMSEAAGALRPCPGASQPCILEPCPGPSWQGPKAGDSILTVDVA
Description: To evaluate the ability of lanthipeptides to recruit ß-arrestins via GAL1R or via GAL2R, we used the PathHunter® eXpress GAL1R, CHO-K1, β-arrestin GPCR Assay and the PathHunter® eXpress GAL2R, CHO-K1, β-arrestin, GPCR Assay from Eurofins-DiscoverX. The assays were performed according to the manufacturer’s instructions. Briefly, for one assay, CHO-K1 cells co-expressing GAL1R or GAL2R and β-arrestin (isoform 2) were diluted in AssayComplete™ Cell Plating Reagent, and 100 µl was seeded into each well of a 96-well plate. The plate was incubated at 37 °C, 5% CO2 in a humidified incubator. A serial 3 × dilution of the lanthipeptides in water was made (10 µM to 5 nM). After 48 h of incubation, 10 µl of the serial dilutions was applied to the cells in duplicate. The agonists were incubated for 90 min at 37 °C. Next, 55 µL of Working Detection Solution was added, and after 1 h of incubation at room temperature in the dark, the chemiluminescent signal was read with a Synergy HT Biotek reader.

**Q.** How did the “Stimulation of GAL1R, DMR in SY5YR1 cells” value (GAL1R [1]) turn out when `CC(C)C[C@H](NC(=O)[C@H](CC(C)C)NC(=O)[C@H](Cc1ccc(O)cc1)NC(=O)CNC(=O)[C@H](C)NC(=O)[C@H](C)NC(=O)[C@H](CC(N)=O)NC(=O)[C@H](CC(C)C)NC(=O)[C@H](CC(N)=O)NC(=O)[C@H](Cc1c[nH]c2ccccc12)NC(=O)[C@@H]1CCC(=O)N1)C(=O)N[C@@H](C)C(=O)N[C@H]1C(=O)N[C@@H](Cc2c[nH]cn2)C(=O)N[C@@H](C)C(=O)N[C@H](C(=O)NCC(=O)O)CS[C@H]1C` [Variant M89b, G1pE-T3N-S6A-G12A-methyllanthionine[13–16]-galanin-(1–17)] ([pGlu]WNLNAAGYLLA[dAbu(3S-yl)]HACG-OH; thioether 13-16; C-terminus assumed) was run?
**A.** stimulate GAL2R only, not GAL1R

**Q.** And the “Stimulation of GAL3R, luciferase reporter” value (GAL3R)?
**A.** inability to stimulate

**Q.** And the “EC50 ratios to Gal-(1-15), GAL1R cAMP” value (GAL1R [2])?
**A.** NA (3) (NA is not active; ratios above 1000 were considered to be not active)

**Q.** And the “EC50 ratios to Gal-(1-15), GAL2R ß-Arrestin” value (GAL2R)?
**A.** 1.7 (3)
